Assay results: patent publication US12516056B2, “Compounds for inhibition of janus kinase 1” (MANKIND PHARMA LTD., priority 2019, dated 2026)

How the values were obtained:
[1] = tested on: STAT5 phosphorylation by GMCSF in TF-1 cells; assay: JAK cellular assay: STAT5 phosphorylation by GMCSF in TF-1 cells (HTRF); format: cell-based; settings: Homo sapiens; TF-1 cells, GMCSF 5 ng/ml, pSTAT5 HTRF; read-out: Cell Based Assay (μM) TF-1/GMCSF/pSTAT5
Method in brief: (§1)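 TF-1 cells starved overnight in low-serum OptiMEM, then 120,000/well in RPMI, preincubated with compound 30 min at 37 °C (0.2% DMSO final). Stimulation 20 min with IL-6 30 ng/ml (pSTAT3) or GMCSF 5 ng/ml (pSTAT5); lysate phospho-STAT by HTRF, unstimulated background subtracted.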

[2] = target: T1, Recombinant JAK1 (Homo sapiens, UniProt P23458); assay: JAK biochemical assay (LANCE Ultra TR-FRET), JAK1; settings: recombinant JAK1, TR-FRET; read-out: Biochemical Assay (μM) JAK1
T1 construct: purchased Carna Biosciences
Method in brief: (§2)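 TR-FRET read-out of ULight substrate phosphorylation by recombinant kinase gives % inhibition relative to vehicle. The assay buffer is HEPES pH 7.5 with EGTA, MgCl2, DTT and Tween-20.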

[3] = target: T2, Recombinant JAK2 (Homo sapiens, UniProt O60674); assay: JAK biochemical assay (LANCE Ultra TR-FRET), JAK2; settings: recombinant JAK2, TR-FRET; read-out: Biochemical Assay (μM) JAK2
T2 construct: purchased Carna Biosciences
Method in brief: as §2

[4] = target: T3, Recombinant TYK2 (Homo sapiens, UniProt P29597); assay: JAK biochemical assay (LANCE Ultra TR-FRET), TYK2; settings: recombinant TYK2, TR-FRET; read-out: Biochemical Assay (μM) TYK2
T3 construct: purchased Carna Biosciences
Method in brief: as §2

[5] = target: T4, Recombinant JAK3 (Homo sapiens, UniProt P52333); assay: JAK biochemical assay (LANCE Ultra TR-FRET), JAK3; settings: recombinant JAK3, TR-FRET; read-out: Biochemical Assay (μM) JAK3
T4 construct: purchased Carna Biosciences
T4 sequence (P52333 1-1124): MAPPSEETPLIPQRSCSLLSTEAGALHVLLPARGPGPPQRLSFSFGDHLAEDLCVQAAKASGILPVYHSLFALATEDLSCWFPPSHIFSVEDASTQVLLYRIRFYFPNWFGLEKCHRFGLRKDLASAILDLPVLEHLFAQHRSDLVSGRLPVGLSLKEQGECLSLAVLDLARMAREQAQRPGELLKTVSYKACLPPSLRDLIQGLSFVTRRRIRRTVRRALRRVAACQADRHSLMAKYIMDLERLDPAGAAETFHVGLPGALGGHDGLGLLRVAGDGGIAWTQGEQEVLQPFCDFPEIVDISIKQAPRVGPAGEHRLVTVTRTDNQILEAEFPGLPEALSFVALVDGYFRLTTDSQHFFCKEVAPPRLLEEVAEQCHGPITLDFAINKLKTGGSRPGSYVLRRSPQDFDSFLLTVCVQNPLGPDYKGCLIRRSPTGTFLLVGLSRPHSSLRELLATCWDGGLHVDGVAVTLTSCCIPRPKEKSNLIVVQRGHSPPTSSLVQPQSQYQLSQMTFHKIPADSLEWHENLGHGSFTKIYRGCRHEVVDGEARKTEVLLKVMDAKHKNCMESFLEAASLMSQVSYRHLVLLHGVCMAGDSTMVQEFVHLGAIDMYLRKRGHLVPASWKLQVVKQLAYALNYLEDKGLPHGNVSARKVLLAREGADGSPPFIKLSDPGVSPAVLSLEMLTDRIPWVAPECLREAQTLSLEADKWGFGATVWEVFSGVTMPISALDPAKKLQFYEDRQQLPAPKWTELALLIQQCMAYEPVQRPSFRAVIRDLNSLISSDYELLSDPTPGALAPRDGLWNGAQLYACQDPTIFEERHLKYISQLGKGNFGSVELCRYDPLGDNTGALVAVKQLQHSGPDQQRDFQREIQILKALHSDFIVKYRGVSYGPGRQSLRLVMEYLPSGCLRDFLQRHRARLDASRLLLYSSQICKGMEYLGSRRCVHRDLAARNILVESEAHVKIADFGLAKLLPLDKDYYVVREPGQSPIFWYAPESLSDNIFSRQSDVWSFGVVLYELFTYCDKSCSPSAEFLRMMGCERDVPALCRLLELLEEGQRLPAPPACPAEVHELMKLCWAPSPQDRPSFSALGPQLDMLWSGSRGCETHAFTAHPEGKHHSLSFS
Method in brief: as §2

[6] = tested on: STAT3 phosphorylation by IL-6 in TF-1 cells; assay: JAK cellular assay: STAT3 phosphorylation by IL-6 in TF-1 cells (HTRF); format: cell-based; settings: Homo sapiens, TF-1, TF-1 cells, IL-6 30 ng/ml, pSTAT3 HTRF; read-out: Cell Based Assay (μM) TF-1/IL-6/pSTAT3
Method in brief: as §1

[7] = tested on: STAT5 phosphorylation by IL-2 in HT-2 cells; assay: STAT5 phosphorylation by IL-2 in HT-2 cells (HTRF); format: cell-based; settings: HT2, HT-2 cells, IL-2 50 U/ml, pSTAT5 HTRF; read-out: Cell Based Assay (μM) HT-2/IL-2/pSTAT5
Procedure: HT-2 cells were starved […] in RPMI phenol red with 10% fetal bovine serum for 4 hours in CO2 incubator maintained at 37° c. Compounds were diluted in DMSO and added to 96 well plate containing a final density of 1,20,000 cells per well. Cells and compounds are incubated for 30 minutes in CO2 incubator maintained at 37° C. and final DMSO concentration in cell based assay was 0.2%. Human recombinant cytokine, IL-2 (50 U/ml) was added to the plate containing cells and compound and incubated for 20 minutes with gentle tapping/shaking at every 5 minutes once. Compound mediated effects on STAT5 phosphorylation was measured in the lysates prepared by using CISBIO pSTAT5 detection kit by HTRF method. Background signal obtained from cells which were not activated with cytokines, was subtracted from vehicle controls and compound treated wells.

T3 sequence (P29597 whole entry): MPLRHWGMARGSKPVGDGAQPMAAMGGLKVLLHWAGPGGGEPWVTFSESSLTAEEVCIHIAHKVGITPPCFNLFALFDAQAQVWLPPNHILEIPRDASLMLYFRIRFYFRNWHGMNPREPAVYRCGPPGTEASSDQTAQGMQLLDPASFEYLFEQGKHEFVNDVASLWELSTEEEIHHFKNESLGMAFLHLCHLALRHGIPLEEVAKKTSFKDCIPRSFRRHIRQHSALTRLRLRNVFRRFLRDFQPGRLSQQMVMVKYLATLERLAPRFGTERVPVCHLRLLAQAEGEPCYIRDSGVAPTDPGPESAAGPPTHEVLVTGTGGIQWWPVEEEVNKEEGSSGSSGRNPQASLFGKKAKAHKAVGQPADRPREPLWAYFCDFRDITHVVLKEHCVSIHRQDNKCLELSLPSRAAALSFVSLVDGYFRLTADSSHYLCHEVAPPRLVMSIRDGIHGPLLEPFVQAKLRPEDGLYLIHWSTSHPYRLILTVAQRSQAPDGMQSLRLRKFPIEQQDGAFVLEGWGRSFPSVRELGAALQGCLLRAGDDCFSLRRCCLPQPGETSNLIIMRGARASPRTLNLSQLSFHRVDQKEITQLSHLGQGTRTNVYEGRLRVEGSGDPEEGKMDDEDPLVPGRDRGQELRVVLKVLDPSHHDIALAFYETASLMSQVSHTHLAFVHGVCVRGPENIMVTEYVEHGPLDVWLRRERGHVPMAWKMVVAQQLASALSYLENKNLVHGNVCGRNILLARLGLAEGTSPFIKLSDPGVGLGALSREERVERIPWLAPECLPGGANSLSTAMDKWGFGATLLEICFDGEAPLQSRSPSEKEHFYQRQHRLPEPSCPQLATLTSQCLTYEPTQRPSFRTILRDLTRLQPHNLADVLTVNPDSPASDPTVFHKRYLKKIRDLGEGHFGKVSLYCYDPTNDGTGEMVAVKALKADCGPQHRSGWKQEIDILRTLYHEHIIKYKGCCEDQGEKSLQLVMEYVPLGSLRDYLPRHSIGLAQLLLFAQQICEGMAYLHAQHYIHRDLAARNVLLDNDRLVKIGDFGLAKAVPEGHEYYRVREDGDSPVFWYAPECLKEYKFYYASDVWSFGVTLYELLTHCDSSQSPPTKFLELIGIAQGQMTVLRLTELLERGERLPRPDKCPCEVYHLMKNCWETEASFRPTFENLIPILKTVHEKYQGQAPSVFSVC
T2 sequence (O60674 whole entry): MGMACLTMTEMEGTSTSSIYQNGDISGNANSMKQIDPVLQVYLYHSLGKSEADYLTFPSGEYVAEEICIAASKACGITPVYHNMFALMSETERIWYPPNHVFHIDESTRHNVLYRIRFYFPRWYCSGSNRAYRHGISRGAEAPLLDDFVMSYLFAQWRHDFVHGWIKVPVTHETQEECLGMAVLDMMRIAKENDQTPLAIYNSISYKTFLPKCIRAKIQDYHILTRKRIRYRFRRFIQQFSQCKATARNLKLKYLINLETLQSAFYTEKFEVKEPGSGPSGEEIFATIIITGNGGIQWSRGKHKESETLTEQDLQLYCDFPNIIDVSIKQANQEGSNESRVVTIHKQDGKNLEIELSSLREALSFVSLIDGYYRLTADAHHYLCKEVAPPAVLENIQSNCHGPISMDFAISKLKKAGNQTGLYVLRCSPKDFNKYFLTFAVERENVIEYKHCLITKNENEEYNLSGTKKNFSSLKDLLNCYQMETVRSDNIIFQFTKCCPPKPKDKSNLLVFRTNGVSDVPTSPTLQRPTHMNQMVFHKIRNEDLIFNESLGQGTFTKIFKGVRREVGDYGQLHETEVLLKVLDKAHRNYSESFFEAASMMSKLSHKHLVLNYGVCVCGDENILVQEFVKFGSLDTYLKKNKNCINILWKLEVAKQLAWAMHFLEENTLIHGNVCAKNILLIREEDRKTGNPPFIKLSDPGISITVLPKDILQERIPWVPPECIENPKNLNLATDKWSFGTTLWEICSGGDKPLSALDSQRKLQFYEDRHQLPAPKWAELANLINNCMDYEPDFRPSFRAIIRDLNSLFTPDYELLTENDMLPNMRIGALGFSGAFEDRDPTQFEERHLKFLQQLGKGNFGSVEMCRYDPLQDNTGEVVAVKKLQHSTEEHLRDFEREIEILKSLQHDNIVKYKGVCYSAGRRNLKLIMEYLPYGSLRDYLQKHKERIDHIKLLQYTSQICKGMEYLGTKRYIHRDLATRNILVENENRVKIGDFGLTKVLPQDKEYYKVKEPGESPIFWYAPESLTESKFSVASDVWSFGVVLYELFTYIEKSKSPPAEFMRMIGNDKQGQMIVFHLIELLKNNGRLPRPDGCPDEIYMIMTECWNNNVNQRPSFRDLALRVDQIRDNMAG
T1 sequence (P23458 whole entry): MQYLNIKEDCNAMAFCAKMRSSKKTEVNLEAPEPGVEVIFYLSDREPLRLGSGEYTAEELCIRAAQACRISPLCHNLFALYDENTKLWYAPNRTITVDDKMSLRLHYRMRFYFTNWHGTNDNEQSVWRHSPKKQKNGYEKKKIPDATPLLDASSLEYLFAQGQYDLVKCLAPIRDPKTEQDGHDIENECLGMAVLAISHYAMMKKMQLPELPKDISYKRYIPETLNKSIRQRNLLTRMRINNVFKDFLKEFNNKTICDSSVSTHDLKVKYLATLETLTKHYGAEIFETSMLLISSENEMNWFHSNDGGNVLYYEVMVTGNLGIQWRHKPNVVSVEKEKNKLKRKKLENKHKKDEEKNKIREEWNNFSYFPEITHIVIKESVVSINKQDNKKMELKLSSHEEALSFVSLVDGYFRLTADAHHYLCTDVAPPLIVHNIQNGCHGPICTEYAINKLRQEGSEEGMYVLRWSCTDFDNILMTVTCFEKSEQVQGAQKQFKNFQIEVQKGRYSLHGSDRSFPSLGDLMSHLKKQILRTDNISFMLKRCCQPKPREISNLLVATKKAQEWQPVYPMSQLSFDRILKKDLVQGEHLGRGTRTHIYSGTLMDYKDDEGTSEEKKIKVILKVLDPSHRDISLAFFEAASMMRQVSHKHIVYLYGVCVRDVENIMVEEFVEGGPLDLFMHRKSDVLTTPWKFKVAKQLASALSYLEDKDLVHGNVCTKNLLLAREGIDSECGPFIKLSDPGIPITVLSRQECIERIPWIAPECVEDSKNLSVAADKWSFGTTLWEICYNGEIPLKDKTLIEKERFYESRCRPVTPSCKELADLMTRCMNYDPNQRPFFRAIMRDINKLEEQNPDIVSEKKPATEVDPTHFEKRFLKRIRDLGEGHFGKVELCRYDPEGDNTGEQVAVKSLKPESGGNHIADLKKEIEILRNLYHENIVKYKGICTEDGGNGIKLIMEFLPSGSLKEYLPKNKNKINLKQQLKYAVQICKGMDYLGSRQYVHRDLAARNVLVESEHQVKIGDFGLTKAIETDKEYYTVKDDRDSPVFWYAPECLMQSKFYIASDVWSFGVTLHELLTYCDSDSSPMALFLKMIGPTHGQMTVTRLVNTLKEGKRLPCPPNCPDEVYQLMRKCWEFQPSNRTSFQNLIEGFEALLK

Row | IC50 [1] | IC50 [2] | IC50 [3] | IC50 [4] | IC50 [5] | IC50 [6] | IC50 [7] | Compound
1 | > 1 µM | < 0.1 µM | < 0.1 µM | > 1 µM | < 0.1 µM | > 1 µM | – | OCC(Cc1ccc(-n2cc(-c3ccnc4[nH]cnc34)cn2)nc1)C(F)(F)F (stereo not shown) [Example 1191, 3-(6-(4-(3H-imidazo[4,5-b]pyridin-7-yl)-1H-pyrazol-1-yl)pyridin-3-yl)-2-(trifluoromethyl)propan-1-ol]
2 | > 1 µM | < 0.1 µM | < 0.1 µM | > 1 µM | < 0.1 µM | > 0.5 µM | – | CN(CCC(c1ccc(-n2cc(-c3ccnc4[nH]cnc34)cn2)nc1)C(F)(F)F)C1CC1 (stereo not shown) [Example 1195, N-(3-(6-(4-(3H-imidazo[4,5-b]pyridin-7-yl)-1H-pyrazol-1-yl)pyridin-3-yl)-4,4,4-trifluorobutyl)-N-methylcyclopropanamine]
3 | > 1 µM | < 0.1 µM | < 0.1 µM | > 0.5 µM | < 0.1 µM | > 0.3 µM | – | FC(F)(F)C(OCCNC1CC1)c1ccc(-n2cc(-c3ccnc4[nH]cnc34)cn2)nc1 (stereo not shown) [Example 1197, N-(2-(1-(6-(4-(3H-imidazo[4,5-b]pyridin-7-yl)-1H-pyrazol-1-yl)pyridin-3-yl)-2,2,2-trifluoroethoxy)ethyl)cyclopropanamine]
4 | > 1 µM | < 0.1 µM | > 0.5 µM | > 1 µM | < 0.1 µM | > 0.5 µM | – | FC(F)(F)C(CCN1CCOCC1)c1ccc(-n2cc(-c3ccnc4[nH]cnc34)cn2)nc1 (stereo not shown) [Example 1201, 7-(1-(5-(1,1,1-trifluoro-4-morpholinobutan-2-yl)pyridin-2-yl)-1H-pyrazol-4-yl)-3H-imidazo[4,5-b]pyridine]
5 | > 1 µM | < 0.1 µM | > 0.1 µM | > 0.5 µM | < 0.1 µM | > 0.5 µM | – | N#CC1CN(CCC(c2ccc(-n3cc(-c4ccnc5[nH]cnc45)cn3)nc2)C(F)(F)F)C1 (stereo not shown) [Example 1202, 1-(3-(6-(4-(3H-imidazo[4,5-b]pyridin-7-yl)-1H-pyrazol-1-yl)pyridin-3-yl)-4,4,4-trifluorobutyl)azetidine-3-carbonitrile]
6 | > 1 µM | < 0.1 µM | < 0.1 µM | > 1 µM | < 0.1 µM | > 0.75 µM | – | CS(=O)(=O)NCC(c1ccc(-n2cc(-c3ccnc4[nH]cnc34)cn2)nc1)C(F)(F)F (stereo not shown) [Example 1209]
7 | > 1 µM | < 0.1 µM | < 0.1 µM | > 1 µM | < 0.1 µM | > 0.75 µM | – | CC(C)NC(=O)CCC(c1ccc(-n2cc(-c3ccnc4[nH]cnc34)cn2)nc1)C(F)(F)F (stereo not shown) [Example 1210, 4-(6-(4-(3H-imidazo[4,5-b]pyridin-7-yl)-1H-pyrazol-1-yl)pyridin-3-yl)-5,5,5-trifluoro-N-isopropylpentanamide]
8 | > 1 µM | < 0.1 µM | < 0.1 µM | > 0.5 µM | < 0.1 µM | > 0.75 µM | – | FC(F)(F)C(CNC1CC1)c1ccc(-n2cc(-c3ccnc4[nH]cnc34)cn2)nc1 (stereo not shown) [Example 1212, N-(2-(6-(4-(3H-imidazo[4,5-b]pyridin-7-yl)-1H-pyrazol-1-yl)pyridin-3-yl)-3,3,3-trifluoropropyl)cyclopropanamine]
9 | > 1 µM | < 0.1 µM | < 0.1 µM | > 0.5 µM | < 0.1 µM | > 0.75 µM | – | CN1CCN(CCC(c2ccc(-n3cc(-c4ccnc5[nH]cnc45)cn3)nc2)C(F)(F)F)CC1 (stereo not shown) [Example 1219, 7-(1-(5-(1,1,1-trifluoro-4-(4-methylpiperazin-1-yl)butan-2-yl)pyridin-2-yl)-1H-pyrazol-4-yl)-3H-imidazo[4,5-b]pyridine]
10 | > 1 µM | < 0.1 µM | < 0.1 µM | > 0.5 µM | < 0.1 µM | > 1 µM | – | O=C(C1CC1)N1CCC(C(O)(c2ccc(-n3cc(-c4ccnc5[nH]cnc45)cn3)nc2)C(F)(F)F)CC1 (stereo not shown) [Example 1220, (4-(1-(6-(4-(3H-imidazo[4,5-b]pyridin-7-yl)-1H-pyrazol-1-yl)pyridin-3-yl)-2,2,2-trifluoro-1-hydroxyethyl)piperidin-1-yl)(cyclopropyl)methanone]
11 | > 1 µM | < 0.1 µM | < 0.1 µM | > 0.1 µM | < 0.1 µM | > 0.75 µM | – | CCN1CCC(C(O)(c2ccc(-n3cc(-c4ccnc5[nH]cnc45)cn3)nc2)C(F)(F)F)CC1 (stereo not shown) [Example 1221, 1-(6-(4-(3H-imidazo[4,5-b]pyridin-7-yl)-1H-pyrazol-1-yl)pyridin-3-yl)-1-(1-ethylpiperidin-4-yl)-2,2,2-trifluoroethanol]
12 | – | – | > 0.03 µM | > 0.1 µM | > 0.03 µM | > 1 µM | > 0.75 µM | CC(=O)N1CC(C(O)(c2ccc(-n3cc(-c4ccnc5[nH]cnc45)cn3)nc2)C(F)(F)F)C1 (stereo not shown) [Example 1236, 1-(3-(1-(6-(4-(3H-imidazo[4,5-b]pyridin-7-yl)-1H-pyrazol-1-yl)pyridin-3-yl)-2,2,2-trifluoro-1-hydroxyethyl)azetidin-1-yl)ethanone]
13 | 0.26 µM | 0.006 µM | 0.056 µM | 0.06 µM | 0.023 µM | 0.05 µM | – | CCN1CC(C(O)(c2ccc(-n3cc(-c4ccnc5[nH]cnc45)cn3)nc2)C(F)(F)F)C1 (stereo not shown) [Example 1239, 1-(6-(4-(3H-imidazo[4,5-b]pyridin-7-yl)-1H-pyrazol-1-yl)pyridin-3-yl)-1-(1-ethylazetidin-3-yl)-2,2,2-trifluoroethanol]
14 | > 1 µM | > 0.01 µM | > 0.03 µM | > 1 µM | > 0.03 µM | > 0.5 µM | – | CC(C)N1CCC(C(O)(c2ccc(-n3cc(-c4ccnc5[nH]cnc45)cn3)nc2)C(F)(F)F)CC1 (stereo not shown) [Example 1240, 1-(6-(4-(3H-imidazo[4,5-b]pyridin-7-yl)-1H-pyrazol-1-yl)pyridin-3-yl)-2,2,2-trifluoro-1-(1-isopropylpiperidin-4-yl)ethanol]
15 | – | – | 0.06 µM | 0.19 µM | 0.023 µM | > 1 µM | > 1 µM | CC(C)C(=O)NCCC(c1ccc(-n2cc(-c3ccnc4[nH]cnc34)cn2)nc1)C(F)(F)F (stereo not shown) [Example 1247, N-(3-(6-(4-(3H-imidazo[4,5-b]pyridin-7-yl)-1H-pyrazol-1-yl)pyridin-3-yl)-4,4,4-trifluorobutyl)isobutyramide]
